From patent US20230139445A1, “BACTERIAL CELLS WITH IMPROVED TOLERANCE TO DIACIDS” (priority 2016, published 2023)
Read-outs that look alike come from different tables or passages of the source.

Tests used:
[1] = test system: Escherichia coli K-12 MG1655; experiment: Growth of K-12 MG1655 in varying concentrations of fumaric, itaconic, malic and succinic acid, Growth Profiler; type: cell-based
In short: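 Escherichia coli K-12 MG1655 cultures were grown in M9 medium with 1% glucose and challenged with the dicarboxylic acids, supplied as neutral sodium salts or as free acids neutralized to pH 7.0 with sodium hydroxide. Plates were shaken at 225 rpm and 37° C. in a Growth Profiler, scanned every 15 minutes, and green pixel values were converted to OD600 by calibration.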

[2] = test system: Escherichia coli K-12 MG1655 and evolved isolates; type: cell-based; settings: 50 g/L succinic acid
In short: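 Wild-type MG1655 and evolved isolates, precultured overnight in M9 + 1% glucose at 37 °C, were diluted into M9 + 1% glucose. Growth at 37 °C, 225 rpm, scanned every 15 min; pixel values calibrated to OD600. Diacids tested as sodium salts or neutralized to pH 7.0.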

SMILES: O=C(O)CCC(=O)O [succinic acid]
- μ (mean) ([1]; growth rate of K-12 MG1655, 10 g/L diacid (sodium salt)): 0.665 h^1
- μ (mean) ([1]; growth rate of K-12 MG1655, 20 g/L diacid (sodium salt)): 0.610 h^1
- μ (mean) ([1]; growth rate of K-12 MG1655, 30 g/L diacid (sodium salt)): 0.496 h^1
- μ (mean) ([1]; growth rate of K-12 MG1655, 40 g/L diacid (sodium salt)): 0.345 h^1
- μ (mean) ([1]; growth rate of K-12 MG1655, 50 g/L diacid (sodium salt)): 0.179 h^1
- μ (mean) ([1]; growth rate of K-12 MG1655, 60 g/L diacid (sodium salt)): 0.127 h^1
- tlag (mean) ([1]; lag time of K-12 MG1655, 10 g/L diacid (sodium salt)): 5.4 h
- tlag (mean) ([1]; lag time of K-12 MG1655, 20 g/L diacid (sodium salt)): 6.7 h
- tlag (mean) ([1]; lag time of K-12 MG1655, 30 g/L diacid (sodium salt)): 8.9 h
- tlag (mean) ([1]; lag time of K-12 MG1655, 40 g/L diacid (sodium salt)): 13.4 h
- tlag (mean) ([1]; lag time of K-12 MG1655, 50 g/L diacid (sodium salt)): 22.4 h
- tlag (mean) ([1]; lag time of K-12 MG1655, 60 g/L diacid (sodium salt)): 42.5 h
- growth rate μ (mean) ([2]; strain ADIP1-1): 0.299 h⁻¹
- lag time tlag (mean) ([2]; strain ADIP1-1): 16.1 h
- growth rate μ (mean) ([2]; strain ADIP1-9): 0.290 h⁻¹
- lag time tlag (mean) ([2]; strain ADIP1-9): 14.5 h
- growth rate μ (mean) ([2]; strain ADIP2-5): 0.260 h⁻¹
- lag time tlag (mean) ([2]; strain ADIP2-5): 25.5 h
- growth rate μ (mean) ([2]; strain ADIP2-6): 0.278 h⁻¹
- lag time tlag (mean) ([2]; strain ADIP2-6): 21.7 h
- growth rate μ (mean) ([2]; strain ADIP2-10): 0.262 h⁻¹
- lag time tlag (mean) ([2]; strain ADIP2-10): 22.0 h
- growth rate μ (mean) ([2]; strain ADIP3-2): 0.311 h⁻¹
- lag time tlag (mean) ([2]; strain ADIP3-2): 13.2 h
- growth rate μ (mean) ([2]; strain ADIP3-4): 0.308 h⁻¹
- lag time tlag (mean) ([2]; strain ADIP3-4): 12.7 h
- growth rate μ (mean) ([2]; strain ADIP3-8): 0.304 h⁻¹
- lag time tlag (mean) ([2]; strain ADIP3-8): 13.8 h
- growth rate μ (mean) ([2]; strain ADIP4-1): 0.206 h⁻¹
- lag time tlag (mean) ([2]; strain ADIP4-1): 15.7 h
- growth rate μ (mean) ([2]; strain ADIP4-8): 0.228 h⁻¹
- lag time tlag (mean) ([2]; strain ADIP4-8): 15.8 h
- growth rate μ (mean) ([2]; strain ADIP5-2): 0.192 h⁻¹
- lag time tlag (mean) ([2]; strain ADIP5-2): 13.5 h
- growth rate μ (mean) ([2]; strain ADIP5-6): 0.361 h⁻¹
- lag time tlag (mean) ([2]; strain ADIP5-6): 12.1 h
- growth rate μ (mean) ([2]; strain ADIP6-3): 0.246 h⁻¹
- lag time tlag (mean) ([2]; strain ADIP6-3): 14.9 h
- growth rate μ (mean) ([2]; strain ADIP6-9): 0.210 h⁻¹
- lag time tlag (mean) ([2]; strain ADIP6-9): 18.4 h
- growth rate μ (mean) ([2]; strain ADIP6-10): 0.285 h⁻¹
- lag time tlag (mean) ([2]; strain ADIP6-10): 12.4 h
- growth rate μ (mean) ([2]; strain ADIP7-2): 0.294 h⁻¹
- lag time tlag (mean) ([2]; strain ADIP7-2): 12.5 h
- growth rate μ (mean) ([2]; strain ADIP7-5): 0.274 h⁻¹
- lag time tlag (mean) ([2]; strain ADIP7-5): 12.4 h
- growth rate μ (mean) ([2]; strain ADIP8-3): 0.146 h⁻¹
- lag time tlag (mean) ([2]; strain ADIP8-3): 22.1 h
- growth rate μ (mean) ([2]; strain ADIP8-7): 0.163 h⁻¹
- lag time tlag (mean) ([2]; strain ADIP8-7): 23.2 h
- growth rate μ (mean) ([2]; strain ADIP8-10): 0.131 h⁻¹
- lag time tlag (mean) ([2]; strain ADIP8-10): 20.0 h
- growth rate μ (mean) ([2]; strain GLUT1-3): 0.231 h⁻¹
- lag time tlag (mean) ([2]; strain GLUT1-3): 14.5 h
- growth rate μ (mean) ([2]; strain GLUT1-9): 0.194 h⁻¹
- lag time tlag (mean) ([2]; strain GLUT1-9): 20.8 h
- growth rate μ (mean) ([2]; strain GLUT1-10): 0.246 h⁻¹
- lag time tlag (mean) ([2]; strain GLUT1-10): 20.0 h
- growth rate μ (mean) ([2]; strain GLUT2-1): 0.232 h⁻¹
- lag time tlag (mean) ([2]; strain GLUT2-1): 14.7 h
- growth rate μ (mean) ([2]; strain GLUT2-9): 0.213 h⁻¹
- lag time tlag (mean) ([2]; strain GLUT2-9): 14.4 h
- growth rate μ (mean) ([2]; strain GLUT2-10): 0.277 h⁻¹
- lag time tlag (mean) ([2]; strain GLUT2-10): 13.4 h
- growth rate μ (mean) ([2]; strain GLUT3-5): 0.242 h⁻¹
- lag time tlag (mean) ([2]; strain GLUT3-5): 16.1 h
- growth rate μ (mean) ([2]; strain GLUT3-7): 0.235 h⁻¹
- lag time tlag (mean) ([2]; strain GLUT3-7): 15.3 h
- growth rate μ (mean) ([2]; strain GLUT3-9): 0.221 h⁻¹
- lag time tlag (mean) ([2]; strain GLUT3-9): 20.6 h
- growth rate μ (mean) ([2]; strain GLUT4-1): 0.263 h⁻¹
- lag time tlag (mean) ([2]; strain GLUT4-1): 16.3 h
- growth rate μ (mean) ([2]; strain GLUT4-4): 0.242 h⁻¹
- lag time tlag (mean) ([2]; strain GLUT4-4): 16.6 h
- growth rate μ (mean) ([2]; strain GLUT4-10): 0.231 h⁻¹
- lag time tlag (mean) ([2]; strain GLUT4-10): 15.7 h
- growth rate μ (mean) ([2]; strain GLUT5-4): 0.281 h⁻¹
- lag time tlag (mean) ([2]; strain GLUT5-4): 17.0 h
- growth rate μ (mean) ([2]; strain GLUT5-5): 0.264 h⁻¹
- lag time tlag (mean) ([2]; strain GLUT5-5): 18.4 h
- growth rate μ (mean) ([2]; strain GLUT5-9): 0.244 h⁻¹
- lag time tlag (mean) ([2]; strain GLUT5-9): 18.4 h
- growth rate μ (mean) ([2]; strain GLUT6-4): 0.241 h⁻¹
- lag time tlag (mean) ([2]; strain GLUT6-4): 14.2 h
- growth rate μ (mean) ([2]; strain GLUT6-5): 0.243 h⁻¹
- lag time tlag (mean) ([2]; strain GLUT6-5): 13.9 h
- growth rate μ (mean) ([2]; strain GLUT6-10): 0.211 h⁻¹
- lag time tlag (mean) ([2]; strain GLUT6-10): 14.4 h
- growth rate μ (mean) ([2]; strain GLUT7-2): 0.223 h⁻¹
- lag time tlag (mean) ([2]; strain GLUT7-2): 14.9 h
- growth rate μ (mean) ([2]; strain GLUT7-6): 0.195 h⁻¹
- lag time tlag (mean) ([2]; strain GLUT7-6): 17.8 h
- growth rate μ (mean) ([2]; strain GLUT7-7): 0.156 h⁻¹
- lag time tlag (mean) ([2]; strain GLUT7-7): 19.9 h
- growth rate μ (mean) ([2]; strain GLUT8-5): 0.198 h⁻¹
- lag time tlag (mean) ([2]; strain GLUT8-5): 16.4 h
- growth rate μ (mean) ([2]; strain GLUT8-6): 0.236 h⁻¹
- lag time tlag (mean) ([2]; strain GLUT8-6): 34.1 h
- growth rate μ (mean) ([2]; strain GLUT8-9): 0.250 h⁻¹
- lag time tlag (mean) ([2]; strain GLUT8-9): 38.0 h
- growth rate μ (mean) ([2]; strain MG1655 (Table 28)): 0.169 h⁻¹
- lag time tlag (mean) ([2]; strain MG1655 (Table 28)): 20.2 h
- growth rate μ (mean) ([2]; strain MG1655 (Table 29)): 0.143 h⁻¹
- lag time tlag (mean) ([2]; strain MG1655 (Table 29)): 23.8 h
